In the supplement of paper PMC10307832:

Assays:
Experiment in all cases: relative viability (nuclei count vs DMSO), 5 days (fraction); higher = more cells survive
NCI-H520 = system: NCI-H520
Outline: (§1)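 Relative viability was taken as the ratio of nuclei in treated wells to nuclei in vehicle wells. Lung cancer cell lines in 1536-well plates received compounds by pin tool one day after seeding, either one drug alone or a fixed anchor-drug dose plus five library-drug doses (not always all listed) in √10 steps. Nuclei were counted on 4× images after 5 days of treatment, and values are medians of duplicate plates.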

NCI-H661 = system: NCI-H661
Outline: as §1

NCI-H1651 = system: NCI-H1651
Outline: as §1

NCI-H1792 = system: NCI-H1792
Outline: as §1

NCI-H441 = system: NCI-H441
Outline: as §1

SW 900 = system: SW 900
Outline: as §1

NCI-H3122 = system: NCI-H3122
Outline: as §1

SK-MES-1 = system: SK-MES-1
Outline: as §1

LCLC-103H = system: LCLC-103H
Outline: as §1

NCI-H2347 = system: NCI-H2347
Outline: as §1

NCI-H1355 = system: NCI-H1355
Outline: as §1

NCI-H596 = system: NCI-H596
Outline: as §1

NCI-H522 = system: NCI-H522
Outline: as §1

PC-14 = system: PC-14
Outline: as §1

NCI-H460 = system: NCI-H460
Outline: as §1

NCI-H1915 = system: NCI-H1915
Outline: as §1

RERF-LC-KJ = system: RERF-LC-KJ
Outline: as §1

NCI-H727 = system: NCI-H727
Outline: as §1

NCI-H1563 = system: NCI-H1563
Outline: as §1

NCI-H1755 = system: NCI-H1755
Outline: as §1

LXF-289 = system: LXF-289
Outline: as §1

NCI-H322M = system: NCI-H322M
Outline: as §1

COc1cc2nccc(Oc3ccc(NC(=O)Nc4cc(C)on4)c(Cl)c3)c2cc1OC [Tivozanib] + Cc1nc(Nc2ncc(C(=O)Nc3c(C)cccc3Cl)s2)cc(N2CCN(CCO)CC2)n1 [Dasatinib] (partner 0.075 µM)
relative viability (NCI-H520; first compound 0.005 µM): 0.183
relative viability (NCI-H520; first compound 0.01581 µM): 0.201
relative viability (NCI-H520; first compound 0.05 µM): 0.232
relative viability (NCI-H520; first compound 0.1581 µM): 0.175
relative viability (NCI-H520; first compound 0.5 µM): 0.182
relative viability (NCI-H661; first compound 0.005 µM): 0.851
relative viability (NCI-H661; first compound 0.01581 µM): 0.909
relative viability (NCI-H661; first compound 0.05 µM): 0.95
relative viability (NCI-H661; first compound 0.1581 µM): 0.834
relative viability (NCI-H661; first compound 0.5 µM): 0.796
relative viability (NCI-H1651; first compound 0.005 µM): 0.291
relative viability (NCI-H1651; first compound 0.01581 µM): 0.437
relative viability (NCI-H1651; first compound 0.05 µM): 0.457
relative viability (NCI-H1651; first compound 0.1581 µM): 0.36
relative viability (NCI-H1651; first compound 0.5 µM): 0.377
relative viability (NCI-H1792; first compound 0.005 µM): 0.77
relative viability (NCI-H1792; first compound 0.01581 µM): 0.819
relative viability (NCI-H1792; first compound 0.05 µM): 0.815
relative viability (NCI-H1792; first compound 0.1581 µM): 0.843
relative viability (NCI-H1792; first compound 0.5 µM): 0.848
relative viability (NCI-H441; first compound 0.005 µM): 0.642
relative viability (NCI-H441; first compound 0.01581 µM): 0.584
relative viability (NCI-H441; first compound 0.05 µM): 0.498
relative viability (NCI-H441; first compound 0.1581 µM): 0.625
relative viability (NCI-H441; first compound 0.5 µM): 0.394
relative viability (SW 900; first compound 0.005 µM): 0.566
relative viability (SW 900; first compound 0.01581 µM): 0.53
relative viability (SW 900; first compound 0.05 µM): 0.67
relative viability (SW 900; first compound 0.1581 µM): 0.426
relative viability (SW 900; first compound 0.5 µM): 0.45
relative viability (NCI-H3122; first compound 0.005 µM): 0.986
relative viability (NCI-H3122; first compound 0.01581 µM): 0.821
relative viability (NCI-H3122; first compound 0.05 µM): 0.754
relative viability (NCI-H3122; first compound 0.1581 µM): 0.604
relative viability (NCI-H3122; first compound 0.5 µM): 0.887
relative viability (SK-MES-1; first compound 0.005 µM): 0.288
relative viability (SK-MES-1; first compound 0.01581 µM): 0.404
relative viability (SK-MES-1; first compound 0.05 µM): 0.442
relative viability (SK-MES-1; first compound 0.1581 µM): 0.332
relative viability (SK-MES-1; first compound 0.5 µM): 0.416
relative viability (LCLC-103H; first compound 0.005 µM): 0.459
relative viability (LCLC-103H; first compound 0.01581 µM): 0.524
relative viability (LCLC-103H; first compound 0.05 µM): 0.513
relative viability (LCLC-103H; first compound 0.1581 µM): 0.433
relative viability (LCLC-103H; first compound 0.5 µM): 0.469
relative viability (NCI-H2347; first compound 0.01581 µM): 0.308
relative viability (NCI-H2347; first compound 0.05 µM): 0.294
relative viability (NCI-H2347; first compound 0.5 µM): 0.281
relative viability (NCI-H1355; first compound 0.005 µM): 0.672
relative viability (NCI-H1355; first compound 0.01581 µM): 0.689
relative viability (NCI-H1355; first compound 0.05 µM): 0.787
relative viability (NCI-H1355; first compound 0.1581 µM): 0.413
relative viability (NCI-H1355; first compound 0.5 µM): 0.691
relative viability (NCI-H596; first compound 0.005 µM): 0.55
relative viability (NCI-H596; first compound 0.01581 µM): 0.591
relative viability (NCI-H596; first compound 0.05 µM): 0.575
relative viability (NCI-H596; first compound 0.5 µM): 0.522
relative viability (NCI-H522; first compound 0.005 µM): 0.731
relative viability (NCI-H522; first compound 0.01581 µM): 0.9
relative viability (NCI-H522; first compound 0.05 µM): 0.836
relative viability (NCI-H522; first compound 0.1581 µM): 0.845
relative viability (NCI-H522; first compound 0.5 µM): 0.74
relative viability (PC-14; first compound 0.005 µM): 0.224
relative viability (PC-14; first compound 0.01581 µM): 0.25
relative viability (PC-14; first compound 0.05 µM): 0.255
relative viability (PC-14; first compound 0.1581 µM): 0.316
relative viability (PC-14; first compound 0.5 µM): 0.239
relative viability (NCI-H460; first compound 0.005 µM): 0.401
relative viability (NCI-H460; first compound 0.01581 µM): 0.486
relative viability (NCI-H460; first compound 0.05 µM): 0.549
relative viability (NCI-H460; first compound 0.1581 µM): 0.551
relative viability (NCI-H460; first compound 0.5 µM): 0.529
relative viability (NCI-H1915; first compound 0.005 µM): 0.279
relative viability (NCI-H1915; first compound 0.01581 µM): 0.3
relative viability (NCI-H1915; first compound 0.05 µM): 0.3
relative viability (NCI-H1915; first compound 0.1581 µM): 0.289
relative viability (NCI-H1915; first compound 0.5 µM): 0.272
relative viability (RERF-LC-KJ; first compound 0.005 µM): 0.799
relative viability (RERF-LC-KJ; first compound 0.01581 µM): 0.887
relative viability (RERF-LC-KJ; first compound 0.05 µM): 0.788
relative viability (RERF-LC-KJ; first compound 0.1581 µM): 0.856
relative viability (RERF-LC-KJ; first compound 0.5 µM): 0.583
relative viability (NCI-H727; first compound 0.005 µM): 0.339
relative viability (NCI-H727; first compound 0.01581 µM): 0.33
relative viability (NCI-H727; first compound 0.05 µM): 0.44
relative viability (NCI-H727; first compound 0.1581 µM): 0.328
relative viability (NCI-H727; first compound 0.5 µM): 0.451
relative viability (NCI-H1563; first compound 0.005 µM): 0.455
relative viability (NCI-H1563; first compound 0.01581 µM): 0.463
relative viability (NCI-H1563; first compound 0.05 µM): 0.466
relative viability (NCI-H1563; first compound 0.1581 µM): 0.441
relative viability (NCI-H1563; first compound 0.5 µM): 0.488
relative viability (NCI-H1755; first compound 0.005 µM): 0.356
relative viability (NCI-H1755; first compound 0.01581 µM): 0.415
relative viability (NCI-H1755; first compound 0.05 µM): 0.432
relative viability (NCI-H1755; first compound 0.1581 µM): 0.315
relative viability (NCI-H1755; first compound 0.5 µM): 0.383
relative viability (LXF-289; first compound 0.005 µM): 0.214
relative viability (LXF-289; first compound 0.01581 µM): 0.203
relative viability (LXF-289; first compound 0.05 µM): 0.279
relative viability (LXF-289; first compound 0.1581 µM): 0.264
relative viability (LXF-289; first compound 0.5 µM): 0.216
relative viability (NCI-H322M; first compound 0.005 µM): 0.26
relative viability (NCI-H322M; first compound 0.01581 µM): 0.241
relative viability (NCI-H322M; first compound 0.05 µM): 0.272
relative viability (NCI-H322M; first compound 0.1581 µM): 0.249
relative viability (NCI-H322M; first compound 0.5 µM): 0.254
